Measured values published in ChEMBL document CHEMBL5723583, “Data for DCP probe BAY-9835” (2024).

Columns and labels:
[1] = biological target: Alpha-2B adrenergic receptor (Homo sapiens) (UniProt P18089); assay: Inhibition of Adrenergic alpha2B at 10.0 µM in the Eurofins-Panlabs selectivity screen; conditions: Compound concentration 10.0 uM
[2] = biological target: Vasopressin V1a receptor (Homo sapiens) (UniProt P37288); assay: Inhibition of Vasopressin V1A at 10.0 µM in the Eurofins-Panlabs selectivity screen; conditions: Compound concentration 10.0 uM
[3] = biological target: Disintegrin and metalloproteinase domain-containing protein 10 (Homo sapiens, UniProt O14672); assay: IC50 of hADAM10 at 1.0 µM in the Bayer in-house protease panel
[4] = biological target: Matrix metalloproteinase-15 (Homo sapiens, UniProt P51511); assay: IC50 of hMMP15 at 1.0 µM in the Bayer in-house protease panel
Caspase-3 = Caspase-3 (Homo sapiens, UniProt P42574); assay: IC50 of Caspase 3 at 1.0 µM in the Bayer in-house protease panel
Cathepsin B = Cathepsin B (Homo sapiens, UniProt P07858); assay: IC50 of Cathepsin B at 1.0 µM in the Bayer in-house protease panel
Cathepsin S = Cathepsin S (Homo sapiens, UniProt P25774); assay: IC50 of Cathepsin S at 1.0 µM in the Bayer in-house protease panel
[5] = biological target: Angiotensin-converting enzyme (Homo sapiens) (UniProt P12821); assay: Inhibition of Peptidase, Angiotensin Converting Enzyme at 10.0 µM in the Eurofins-Panlabs selectivity screen; conditions: Oryctolagus cuniculus; Compound concentration 10.0 uM
[6] = biological target: Carbonic anhydrase 2 (Homo sapiens) (UniProt P00918); assay: Inhibition of Carbonic Anhydrase II at 10.0 µM in the Eurofins-Panlabs selectivity screen; conditions: Compound concentration 10.0 uM
[7] = biological target: 3-hydroxy-3-methylglutaryl-coenzyme A reductase (Homo sapiens) (UniProt P04035); assay: Inhibition of HMG-CoA Reductase at 10.0 µM in the Eurofins-Panlabs selectivity screen; conditions: Compound concentration 10.0 uM
[8] = biological target: Monoamine oxidase B (MAO-B) (Homo sapiens, UniProt P27338); assay: Inhibition of Monoamine Oxidase MAO-B at 10.0 µM in the Eurofins-Panlabs selectivity screen; conditions: compound concentration 10 uM
[9] = biological target: Nitric oxide synthase 1 (Homo sapiens) (UniProt P29475); assay: Inhibition of Nitric Oxide Synthase, Neuronal (nNOS) at 10.0 µM in the Eurofins-Panlabs selectivity screen; conditions: Rattus norvegicus; Compound concentration 10.0 uM
[10] = biological target: cGMP-specific 3',5'-cyclic phosphodiesterase (Homo sapiens) (UniProt O76074); assay: Inhibition of Phosphodiesterase PDE5 at 10.0 µM in the Eurofins-Panlabs selectivity screen; conditions: Compound concentration 10.0 uM
[11] = biological target: Thromboxane-A synthase (Homo sapiens) (UniProt P24557); assay: Inhibition of Thromboxane Synthase at 10.0 µM in the Eurofins-Panlabs selectivity screen; conditions: Compound concentration 10.0 uM
[12] = biological target: Nitric oxide synthase, inducible (Homo sapiens) (UniProt P35228); assay: Inhibition of Nitric Oxide Synthetase, Inducible (iNOS) at 10.0 µM in the Eurofins-Panlabs selectivity screen; conditions: Mus musculus; Compound concentration 10.0 uM
[13] = biological target: Adenosine receptor A1 (Homo sapiens) (UniProt P30542); assay: Inhibition of Adenosine A1 at 10.0 µM in the Eurofins-Panlabs selectivity screen; conditions: Compound concentration 10.0 uM
[14] = biological target: Adenosine receptor A2a (Homo sapiens) (UniProt P29274); assay: Inhibition of Adenosine A2A at 10.0 µM in the Eurofins-Panlabs selectivity screen; conditions: Compound concentration 10.0 uM
[15] = biological target: Alpha-2A adrenergic receptor (Homo sapiens) (UniProt P08913); assay: Inhibition of Adrenergic alpha2A at 10.0 µM in the Eurofins-Panlabs selectivity screen; conditions: Compound concentration 10.0 uM
[16] = biological target: Alpha-2C adrenergic receptor (Homo sapiens) (UniProt P18825); assay: Inhibition of Adrenergic alpha2C at 10.0 µM in the Eurofins-Panlabs selectivity screen; conditions: Compound concentration 10.0 uM
[17] = biological target: Beta-2 adrenergic receptor (Homo sapiens) (UniProt P07550); assay: Inhibition of Adrenergic beta2 at 10.0 µM in the Eurofins-Panlabs selectivity screen; conditions: Compound concentration 10.0 uM
[18] = biological target: Sodium-dependent noradrenaline transporter (Homo sapiens) (UniProt P23975); assay: Inhibition of Transporter, Norepinephrine (NET) at 10.0 µM in the Eurofins-Panlabs selectivity screen; conditions: Compound concentration 10.0 uM
[19] = biological target: Type-1 angiotensin II receptor (Homo sapiens) (UniProt P30556); assay: Inhibition of Angiotensin AT1 at 10.0 µM in the Eurofins-Panlabs selectivity screen; conditions: Compound concentration 10.0 uM
[20] = biological target: D(3) dopamine receptor (Homo sapiens) (UniProt P35462); assay: Inhibition of Dopamine D3 at 10.0 µM in the Eurofins-Panlabs selectivity screen; conditions: Compound concentration 10.0 uM
[21] = biological target: Sodium-dependent dopamine transporter (Homo sapiens) (UniProt Q01959); assay: Inhibition of Transporter, Dopamine (DAT) at 10.0 µM in the Eurofins-Panlabs selectivity screen; conditions: Compound concentration 10.0 uM
[22] = biological target: Estrogen receptor (Homo sapiens) (UniProt P03372); assay: Inhibition of Estrogen ERalpha at 10.0 µM in the Eurofins-Panlabs selectivity screen; conditions: Compound concentration 10.0 uM
[23] = biological target: Glutamate NMDA receptor (Rattus norvegicus) (UniProt P35439+Q00959+Q00960+Q00961+Q62645+Q8VHN2+Q9R1M7); assay: Inhibition of Glutamate, NMDA, Agonism at 10.0 µM in the Eurofins-Panlabs selectivity screen; format: protein-complex assay; conditions: Compound concentration 10.0 uM
[24] = biological target: Muscarinic acetylcholine receptor M1 (Homo sapiens) (UniProt P11229); assay: Inhibition of Muscarinic M1 at 10.0 µM in the Eurofins-Panlabs selectivity screen; conditions: Compound concentration 10.0 uM
[25] = biological target: Muscarinic acetylcholine receptor M3 (Homo sapiens) (UniProt P20309); assay: Inhibition of Muscarinic M3 at 10.0 µM in the Eurofins-Panlabs selectivity screen; conditions: Compound concentration 10.0 uM
[26] = biological target: Muscarinic acetylcholine receptor M4 (Homo sapiens) (UniProt P08173); assay: Inhibition of Muscarinic M4 at 10.0 µM in the Eurofins-Panlabs selectivity screen; conditions: Compound concentration 10.0 uM
[27] = biological target: Mu-type opioid receptor (Homo sapiens) (UniProt P35372); assay: Inhibition of Opiate mu (OP3, MOP) at 10.0 µM in the Eurofins-Panlabs selectivity screen; conditions: Compound concentration 10.0 uM
[28] = biological target: Purinergic P2Y (Rattus norvegicus) (UniProt O35811+Q9EPX4+P49651+Q63371+P41232+O35881+Q6GUG4); assay: Inhibition of Purinergic P2Y at 10.0 µM in the Eurofins-Panlabs selectivity screen; format: protein assay; conditions: Compound concentration 10.0 uM
[29] = biological target: 5-hydroxytryptamine receptor 1A (Homo sapiens) (UniProt P08908); assay: Inhibition of Serotonin (5-Hydroxytryptamine) 5-HT1A at 10.0 µM in the Eurofins-Panlabs selectivity screen; conditions: Compound concentration 10.0 uM
[30] = biological target: 5-hydroxytryptamine receptor 2A (Homo sapiens) (UniProt P28223); assay: Inhibition of Serotonin (5-Hydroxytryptamine) 5-HT2A at 10.0 µM in the Eurofins-Panlabs selectivity screen; conditions: Compound concentration 10.0 uM
[31] = biological target: 5-hydroxytryptamine receptor 2B (Homo sapiens) (UniProt P41595); assay: Inhibition of Serotonin (5-Hydroxytryptamine) 5-HT2B at 10.0 µM in the Eurofins-Panlabs selectivity screen; conditions: Compound concentration 10.0 uM
[32] = biological target: P2X receptor (Rattus norvegicus) (UniProt P51579+P49653+P51578+Q64663+P47824+P51577+P49654); assay: Inhibition of Purinergic P2X at 10.0 µM in the Eurofins-Panlabs selectivity screen; format: protein assay; conditions: Compound concentration 10.0 uM

Chain of Matrix metalloproteinase-15 (P51511 whole entry): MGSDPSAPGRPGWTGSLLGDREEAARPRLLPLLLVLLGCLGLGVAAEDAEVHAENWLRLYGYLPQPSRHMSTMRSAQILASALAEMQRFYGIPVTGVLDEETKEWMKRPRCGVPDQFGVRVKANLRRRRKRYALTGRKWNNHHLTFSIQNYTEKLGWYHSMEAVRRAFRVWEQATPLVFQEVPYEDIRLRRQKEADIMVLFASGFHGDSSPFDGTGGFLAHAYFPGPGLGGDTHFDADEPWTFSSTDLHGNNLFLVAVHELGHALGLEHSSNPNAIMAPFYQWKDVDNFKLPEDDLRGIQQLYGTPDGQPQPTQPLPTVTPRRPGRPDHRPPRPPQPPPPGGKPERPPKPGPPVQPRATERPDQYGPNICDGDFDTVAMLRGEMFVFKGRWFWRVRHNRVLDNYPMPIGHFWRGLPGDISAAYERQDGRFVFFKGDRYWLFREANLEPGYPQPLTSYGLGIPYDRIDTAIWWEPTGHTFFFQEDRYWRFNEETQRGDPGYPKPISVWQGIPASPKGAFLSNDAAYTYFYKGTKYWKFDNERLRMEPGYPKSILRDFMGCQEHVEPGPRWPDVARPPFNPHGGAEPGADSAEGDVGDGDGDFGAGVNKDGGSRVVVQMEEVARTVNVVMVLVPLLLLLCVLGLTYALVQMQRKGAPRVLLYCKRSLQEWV
Chain of Muscarinic acetylcholine receptor M1 (Homo sapiens) (P11229 whole entry): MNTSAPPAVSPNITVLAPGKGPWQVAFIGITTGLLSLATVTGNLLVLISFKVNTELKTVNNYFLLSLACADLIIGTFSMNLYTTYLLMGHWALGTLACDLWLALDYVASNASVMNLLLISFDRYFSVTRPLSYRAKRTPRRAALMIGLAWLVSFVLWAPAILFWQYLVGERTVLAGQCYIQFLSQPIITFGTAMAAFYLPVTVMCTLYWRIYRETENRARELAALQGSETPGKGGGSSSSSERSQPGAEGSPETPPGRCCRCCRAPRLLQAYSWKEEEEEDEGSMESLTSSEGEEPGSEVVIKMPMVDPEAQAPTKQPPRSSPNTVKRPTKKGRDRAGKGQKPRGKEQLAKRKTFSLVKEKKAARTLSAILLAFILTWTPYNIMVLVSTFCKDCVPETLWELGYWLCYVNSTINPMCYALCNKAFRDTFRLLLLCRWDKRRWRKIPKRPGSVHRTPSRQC
Chain of Adenosine receptor A2a (Homo sapiens) (P29274 whole entry): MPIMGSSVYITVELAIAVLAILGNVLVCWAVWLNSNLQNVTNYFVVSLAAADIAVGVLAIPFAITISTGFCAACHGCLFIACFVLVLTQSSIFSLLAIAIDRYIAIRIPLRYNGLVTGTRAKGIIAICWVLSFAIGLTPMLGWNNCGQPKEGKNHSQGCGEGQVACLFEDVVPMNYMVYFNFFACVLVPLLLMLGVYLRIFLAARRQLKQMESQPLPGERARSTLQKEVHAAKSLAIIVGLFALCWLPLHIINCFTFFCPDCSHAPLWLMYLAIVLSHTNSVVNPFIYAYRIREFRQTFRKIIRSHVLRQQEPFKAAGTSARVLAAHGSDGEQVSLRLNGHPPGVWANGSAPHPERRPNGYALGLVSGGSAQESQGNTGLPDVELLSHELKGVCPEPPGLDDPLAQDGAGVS
Chain of Nitric oxide synthase 1 (Homo sapiens) (P29475 whole entry): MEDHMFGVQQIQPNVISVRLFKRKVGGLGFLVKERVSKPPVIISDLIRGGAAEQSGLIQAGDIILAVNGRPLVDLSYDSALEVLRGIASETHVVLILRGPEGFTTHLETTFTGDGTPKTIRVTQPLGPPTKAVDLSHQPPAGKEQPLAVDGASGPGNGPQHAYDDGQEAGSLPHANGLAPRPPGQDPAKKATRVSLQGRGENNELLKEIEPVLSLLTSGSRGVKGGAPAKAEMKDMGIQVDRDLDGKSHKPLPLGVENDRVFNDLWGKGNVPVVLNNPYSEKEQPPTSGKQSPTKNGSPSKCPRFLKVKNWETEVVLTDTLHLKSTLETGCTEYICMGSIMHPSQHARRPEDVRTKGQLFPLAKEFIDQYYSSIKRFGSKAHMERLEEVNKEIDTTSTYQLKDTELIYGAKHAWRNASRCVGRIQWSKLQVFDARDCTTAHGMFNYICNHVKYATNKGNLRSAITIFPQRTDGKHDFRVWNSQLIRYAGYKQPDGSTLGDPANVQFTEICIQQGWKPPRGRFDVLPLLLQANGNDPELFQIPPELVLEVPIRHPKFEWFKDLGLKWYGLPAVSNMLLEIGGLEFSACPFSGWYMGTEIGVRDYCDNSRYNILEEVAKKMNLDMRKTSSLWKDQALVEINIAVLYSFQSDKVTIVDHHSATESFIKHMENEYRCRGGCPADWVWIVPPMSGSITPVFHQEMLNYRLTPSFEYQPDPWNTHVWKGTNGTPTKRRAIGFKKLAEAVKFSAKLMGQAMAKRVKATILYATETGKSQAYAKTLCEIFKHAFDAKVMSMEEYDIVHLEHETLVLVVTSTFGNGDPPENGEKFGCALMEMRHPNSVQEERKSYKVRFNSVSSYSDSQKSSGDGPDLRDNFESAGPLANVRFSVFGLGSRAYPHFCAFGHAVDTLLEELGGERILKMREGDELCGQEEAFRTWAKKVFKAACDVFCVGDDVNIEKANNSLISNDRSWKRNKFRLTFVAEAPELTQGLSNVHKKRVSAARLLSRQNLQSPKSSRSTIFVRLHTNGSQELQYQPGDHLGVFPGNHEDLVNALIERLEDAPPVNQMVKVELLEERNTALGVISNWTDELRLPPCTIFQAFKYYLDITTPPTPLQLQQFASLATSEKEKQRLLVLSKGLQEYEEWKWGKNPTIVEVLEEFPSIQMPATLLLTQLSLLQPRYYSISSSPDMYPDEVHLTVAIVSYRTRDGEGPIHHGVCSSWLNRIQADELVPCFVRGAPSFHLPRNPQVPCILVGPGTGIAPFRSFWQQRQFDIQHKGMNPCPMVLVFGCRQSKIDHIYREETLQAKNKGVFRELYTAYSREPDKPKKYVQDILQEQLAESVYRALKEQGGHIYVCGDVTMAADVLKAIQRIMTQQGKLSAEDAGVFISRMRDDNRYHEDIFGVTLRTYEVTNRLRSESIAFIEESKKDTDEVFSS
Chain of Beta-2 adrenergic receptor (Homo sapiens) (P07550 whole entry, looked up): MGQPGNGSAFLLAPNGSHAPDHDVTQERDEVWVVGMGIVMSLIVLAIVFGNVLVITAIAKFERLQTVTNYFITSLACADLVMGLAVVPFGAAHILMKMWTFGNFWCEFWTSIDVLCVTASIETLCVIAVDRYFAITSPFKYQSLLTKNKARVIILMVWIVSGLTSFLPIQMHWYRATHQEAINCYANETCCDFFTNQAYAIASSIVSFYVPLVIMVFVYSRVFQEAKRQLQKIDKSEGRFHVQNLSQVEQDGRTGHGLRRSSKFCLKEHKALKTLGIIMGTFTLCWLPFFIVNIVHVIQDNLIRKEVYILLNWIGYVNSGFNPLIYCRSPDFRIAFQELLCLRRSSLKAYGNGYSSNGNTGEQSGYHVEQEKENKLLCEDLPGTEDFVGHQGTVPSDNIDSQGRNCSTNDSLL
Chain of Sodium-dependent dopamine transporter (Homo sapiens) (Q01959 whole entry): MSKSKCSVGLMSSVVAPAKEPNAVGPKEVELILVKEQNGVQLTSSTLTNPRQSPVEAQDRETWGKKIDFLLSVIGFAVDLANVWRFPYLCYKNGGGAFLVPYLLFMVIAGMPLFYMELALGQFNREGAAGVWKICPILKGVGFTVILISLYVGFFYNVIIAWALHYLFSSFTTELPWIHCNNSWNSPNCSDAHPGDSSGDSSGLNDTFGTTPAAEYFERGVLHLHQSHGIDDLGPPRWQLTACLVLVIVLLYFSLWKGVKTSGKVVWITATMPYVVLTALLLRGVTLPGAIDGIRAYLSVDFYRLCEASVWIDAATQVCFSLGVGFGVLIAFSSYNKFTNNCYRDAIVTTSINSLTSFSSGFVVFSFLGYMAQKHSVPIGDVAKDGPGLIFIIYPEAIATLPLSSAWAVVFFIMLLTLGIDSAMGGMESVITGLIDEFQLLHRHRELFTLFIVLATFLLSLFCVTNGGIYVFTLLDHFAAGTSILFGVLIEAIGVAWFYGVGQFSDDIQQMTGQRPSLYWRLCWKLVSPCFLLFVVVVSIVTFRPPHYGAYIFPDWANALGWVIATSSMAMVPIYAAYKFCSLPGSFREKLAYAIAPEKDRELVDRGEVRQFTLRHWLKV
Chain of Alpha-2C adrenergic receptor (Homo sapiens) (P18825 whole entry): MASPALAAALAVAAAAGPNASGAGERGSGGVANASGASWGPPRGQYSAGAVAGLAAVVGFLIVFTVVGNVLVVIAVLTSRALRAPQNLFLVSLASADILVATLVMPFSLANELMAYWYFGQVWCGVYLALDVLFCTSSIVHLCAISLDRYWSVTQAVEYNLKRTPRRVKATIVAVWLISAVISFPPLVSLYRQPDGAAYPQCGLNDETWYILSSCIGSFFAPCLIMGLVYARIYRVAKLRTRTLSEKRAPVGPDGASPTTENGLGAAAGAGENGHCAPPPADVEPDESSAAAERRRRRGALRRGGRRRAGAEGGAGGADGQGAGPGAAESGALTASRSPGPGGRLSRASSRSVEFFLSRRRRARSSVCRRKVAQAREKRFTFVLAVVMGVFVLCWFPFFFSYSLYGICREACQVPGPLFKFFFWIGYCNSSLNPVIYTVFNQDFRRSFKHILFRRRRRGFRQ
Chain of Type-1 angiotensin II receptor (Homo sapiens) (P30556 whole entry): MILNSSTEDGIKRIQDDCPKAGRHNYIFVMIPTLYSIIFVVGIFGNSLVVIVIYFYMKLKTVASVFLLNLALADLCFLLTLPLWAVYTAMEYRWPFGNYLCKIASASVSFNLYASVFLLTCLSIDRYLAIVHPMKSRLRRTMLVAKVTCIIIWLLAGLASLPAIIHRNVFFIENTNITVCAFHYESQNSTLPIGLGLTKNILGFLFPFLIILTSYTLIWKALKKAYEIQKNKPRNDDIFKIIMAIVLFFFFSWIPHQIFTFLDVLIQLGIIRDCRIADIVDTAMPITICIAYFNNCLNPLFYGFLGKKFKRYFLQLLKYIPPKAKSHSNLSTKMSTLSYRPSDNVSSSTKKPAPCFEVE

## Cn1nccc1[C@]1(CNC(=O)c2ccc(F)c(F)c2-c2ccc(C(F)(F)F)cc2)NC(=O)NC1=O
[1]
  inhibition: -3%
[2]
  inhibition: 7%
[3]
  IC50: 32.8 µM
[4]
  IC50: 78.5 µM
Caspase-3
  IC50: > 100 µM
Cathepsin B
  IC50: > 100 µM
Cathepsin S
  IC50: > 100 µM
[5]
  inhibition: 3%
[6]
  inhibition: -2%
[7]
  inhibition: -5%
[8]
  inhibition at 10 µM: 10%
[9]
  inhibition: 0%
[10]
  inhibition: -5%
[11]
  inhibition: 11%
[12]
  inhibition: 0%
[13]
  inhibition: -4%
[14]
  inhibition: 3%
[15]
  inhibition: -3%
[16]
  inhibition: -1%
[17]
  inhibition: -9%
[18]
  inhibition: 6%
[19]
  inhibition: -1%
[20]
  inhibition: 2%
[21]
  inhibition: 7%
[22]
  inhibition: 13%
[23]
  inhibition: 1%
[24]
  inhibition: -6%
[25]
  inhibition: 9%
[26]
  inhibition: -6%
[27]
  inhibition: 2%
[28]
  inhibition: -4%
[29]
  inhibition: -3%
[30]
  inhibition: -7%
[31]
  inhibition: -1%
[32]
  inhibition: 0%
